From paper PMC1079853, “Alkane-induced expression, substrate binding profile, and immunolocalization of a cytochrome P450 encoded on the nifD excision element of Anabaena 7120” (BMC Microbiology, 2005)

These compounds were tested against T1, CYP110 (Nostoc sp. PCC 7120 = FACHB-418, UniProt P29980) (assay: UV-visible spectral shift titration). Conditions: read-out: Ks.
T1 construct: recombinant, expressed in E. coli from pUC8 vector, purified soluble fraction; about 50 kDa; U38537 is the complete nifD element carrying cyp110
T1 sequence (P29980 1-459): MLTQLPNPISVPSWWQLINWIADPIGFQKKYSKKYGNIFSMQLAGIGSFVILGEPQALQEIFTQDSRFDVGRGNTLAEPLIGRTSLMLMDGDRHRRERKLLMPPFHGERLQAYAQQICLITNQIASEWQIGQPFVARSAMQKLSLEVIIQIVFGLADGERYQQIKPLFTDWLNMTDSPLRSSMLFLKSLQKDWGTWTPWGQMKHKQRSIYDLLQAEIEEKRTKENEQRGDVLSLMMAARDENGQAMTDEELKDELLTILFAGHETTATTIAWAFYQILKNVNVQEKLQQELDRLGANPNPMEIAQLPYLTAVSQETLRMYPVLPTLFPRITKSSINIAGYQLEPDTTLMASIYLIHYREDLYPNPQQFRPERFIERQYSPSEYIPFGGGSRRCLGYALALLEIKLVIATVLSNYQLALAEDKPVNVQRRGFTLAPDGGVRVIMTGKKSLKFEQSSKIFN
Type: binding
Description: UV-visible spectral shift titration on CYP110

SMILES	Kd [µM]
CCCCCC=CCC=CCCCCCCCC(=O)O [9,12-Octadecadienoic Acid]	720
NCCCCCCCCCCCC(=O)O [12-Aminododecanoic Acid]	416
CCCCC/C=C\C/C=C\C/C=C\C/C=C\CCCC(=O)O [Arachidonic Acid]	51
CCCCCCCCCCCC(=O)O [Dodecanoic Acid]	1900
CCCCCCCCCCCCCCCCC(=O)O [Heptadecanoic Acid]	1100
CCCCCCCCCCCCCCCC(=O)O [Hexadecanoic Acid]	500
CCCCCCCCCCCC(N)=O [Lauryl Amide]	2210
CCCCCCCCCCCC(=O)NC [N-methyl Lauryl Amide]	2560
CCCCCCCCCCCCCCCCCC(=O)O [Octadecanoic Acid]	3100
CCCCCN [Pentyl Amine]	540
CCCCCCCCCCCCC(=O)O [Tridecanoic Acid]	850

The remaining compounds from weak to strong by Kd, led by results:

Kd [µM]	SMILES
320	CCCCCCN [Hexyl Amine]
210	CCCCCCCCCCCCCCC(=O)O [Pentadecanoic Acid]
102	CCCCCCCN [Heptyl Amine]
91	CCCCCCCCCCCCCC(=O)O [Tetradecanoic Acid]
81	CCCCCCCCN [Ocytl Amine]
62	CC/C=C\C/C=C\C/C=C\CCCCCCCC(=O)O [9,12,15-Octadecatrienoic Acid]
62	CCCCCCCCCN [Nonyl Amine]
41	CCCCCCCCCCN [Decyl Amine]
12	CCCCCCCCCCCCN [Dodecyl Amine]
